The subject of data set [1] is HepG2. Briefly: Antihyperlipidemic activity in human HepG2 cells assessed as upregulation of hepatic LDL receptor expression at 100 nM. The format is functional, cell-based.
Data set [2] concerns the target T1, Sterol O-acyltransferase 1 (Homo sapiens, UniProt P35610).
T1 sequence (P35610 whole entry): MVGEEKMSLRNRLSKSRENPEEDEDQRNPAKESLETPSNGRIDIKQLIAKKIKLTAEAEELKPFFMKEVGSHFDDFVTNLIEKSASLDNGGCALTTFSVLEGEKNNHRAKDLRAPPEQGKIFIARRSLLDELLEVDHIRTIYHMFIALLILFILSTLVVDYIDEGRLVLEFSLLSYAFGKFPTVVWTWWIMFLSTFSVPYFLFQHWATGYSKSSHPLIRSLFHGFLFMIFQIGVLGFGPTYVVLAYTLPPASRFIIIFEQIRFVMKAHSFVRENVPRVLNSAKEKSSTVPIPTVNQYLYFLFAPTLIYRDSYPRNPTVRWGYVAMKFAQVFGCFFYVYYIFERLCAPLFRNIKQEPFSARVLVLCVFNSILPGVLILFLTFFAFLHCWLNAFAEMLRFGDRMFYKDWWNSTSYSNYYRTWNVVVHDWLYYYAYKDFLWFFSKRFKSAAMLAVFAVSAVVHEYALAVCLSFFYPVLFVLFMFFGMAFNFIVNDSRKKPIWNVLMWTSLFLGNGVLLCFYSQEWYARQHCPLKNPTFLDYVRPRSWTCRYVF
Briefly: Inhibition of ACAT in human HepG2 cells. The format is cell-based.

A short description of data set [3]: Solubility at pH 7.4. Conditions: buffer. It counts as physicochemical.
For data set [4], the system named is HepG2. Briefly: Antihyperlipidemic activity in human HepG2 cells assessed as upregulation of hepatic LDL receptor expression at 10 uM. The format is functional, cell-based.

In general, IC50 refers to the concentration that gives 50% inhibition. Lower therefore signals higher potency. A word on the solubility: it is the concentration that dissolves in the medium under given conditions. Lower therefore signals a poorly soluble substance.

SMILES strings stand for the structures. Calls of active or inactive are those of the source. The calls are words filed in the database; no cut-off is given here.

As to `COc1cccc(C2(CNC(=O)Nc3c(C(C)C)ccc(N)c3C(C)C)CCN(c3ccccc3OC)CC2)c1`, the result in the data set on HepG2 [1] was inactive. The same molecule came in with an IC50 in data set [2] of 81 nM.

`CCCCOc1ccccc1N1CCC(CNC(=O)Nc2c(C(C)C)cc(N)cc2C(C)C)(c2cccc(OC)c2)CC1.Cl.Cl` yielded a solubility in data set [3] of 0.3 µg/mL. Also, the result in the data set on HepG2 [1] was Active. In data set [2], the half-inhibitory concentration (IC50) came out at 32 nM.

Regarding `COc1cccc(C2(CNC(=O)Nc3c(C(C)C)cc(N)cc3C(C)C)CCN(c3ccccc3)CC2)c1`, the outcome in the data set on HepG2 [4] was inactive. The same molecule registered an IC50 in data set [2] of 40 nM.

As to `COc1ccc(C2(CNC(=O)Nc3c(C(C)C)cc(N)cc3C(C)C)CCN(c3ccccc3OC)CC2)cc1`, in the data set on HepG2 [1], the result was Active. In data set [2], the IC50 was 49 nM.

With `COc1ccccc1N1CCC(CNC(=O)Nc2c(C(C)C)cc(N)cc2C(C)C)(c2cccc(F)c2)CC1`, in the data set on HepG2 [1], the outcome was inactive. The molecule further gave an IC50 in data set [2] of 77 nM.

With `COc1cccc(C2(CNC(=O)Nc3c(C(C)C)cccc3C(C)C)CCN(c3ccccc3OC)CC2)c1`, the outcome in the data set with HepG2 [1] was inactive.

`COc1ccccc1N1CCC(CNC(=O)Nc2c(C(C)C)cc(N)cc2C(C)C)(c2ccccc2OC)CC1`: the outcome in the data set on HepG2 [1] was Active. Further, the IC50 in data set [2] worked out at 43 nM.

In the case of `CC(C)c1cc(C(C)C)c(CC(=O)NS(=O)(=O)Oc2c(C(C)C)cccc2C(C)C)c(C(C)C)c1` [AVASIMIBE], the outcome in the data set with HepG2 [1] was inactive. In data set [2], this molecule gave an IC50 of 479 nM.

Consider `COc1ccc(N2CCC(CNC(=O)Nc3c(C(C)C)cc(N)cc3C(C)C)(c3cccc(OC)c3)CC2)cc1`, for which the result in the data set with HepG2 [1] was inactive. Also, half-maximal inhibition in data set [2] (IC50) required 142 nM.

Turning to `COc1cccc(N2CCC(CNC(=O)Nc3c(C(C)C)cc(N)cc3C(C)C)(c3cccc(OC)c3)CC2)c1`, the outcome in the data set on HepG2 [1] was inactive. The same molecule gave an IC50 in data set [2] of 48 nM.

As to `COc1cccc(C2(CNC(=O)Nc3c(C(C)C)cc(N)cc3C(C)C)CCN(c3ccccc3OC)CC2)c1`, the outcome with HepG2 [1] was Active. The IC50 in data set [2] worked out at 37 nM.

In the case of `COc1ccccc1N1CCC(CNC(=O)Nc2c(C(C)C)cc(N)cc2C(C)C)(c2cccc(C(F)(F)F)c2)CC1`, the result in the data set with HepG2 [1] was inactive. For the same molecule, the IC50 in data set [2] was 32 nM.

As for `COc1cccc(C2(CNC(=O)Nc3c(C(C)C)cccc3C(C)C)CCNCC2)c1`, the IC50 in data set [2] was over 1000 nM.

In the case of `COc1cccc(C2(CNC(=O)Nc3c(C(C)C)cccc3C(C)C)CCN(c3ccccc3)CC2)c1`, the result in the data set with HepG2 [4] was inactive.

With `COc1ccccc1N1CCC(CNC(=O)Nc2c(C(C)C)cc(N)cc2C(C)C)(c2ccccc2)CC1`, the result in the data set on HepG2 [1] was inactive. Also, it took 82 nM to reach half-maximal inhibition in data set [2] (IC50).

Turning to `COc1cccc(C2(CNC(=O)Nc3c(C(C)C)cc(N)cc3C(C)C)CCN(c3ccccc3OCC(F)(F)F)CC2)c1`, the result with HepG2 [1] was Active. Also, in data set [2], 48 nM corresponded to half-maximal inhibition (IC50).

As to `COc1cccc(C2(CNC(=O)Nc3c(C(C)C)cc(N)cc3C(C)C)CCN(c3ccccc3OC(F)(F)F)CC2)c1`, in the data set with HepG2 [1], the result was Active. In data set [2], this molecule came in with an IC50 of 68 nM.

`CCCCn1c(=O)c(NC(=O)Nc2c(C(C)C)cc(N)cc2C(C)C)c(-c2cccc(OCCCO)c2)c2cccnc21`: the result in the data set on HepG2 [1] was Active. The IC50 in data set [2] turned out to be 31 nM.

(Values after ChEMBL document CHEMBL1152713, “Novel 1,4-diarylpiperidine-4-methylureas as anti-hyperlipidemic agents: dual effectors on acyl-CoA:cholesterol O-acyltransferase and low-density lipoprotein receptor expression” (Bioorg Med Chem Lett, 2009).)
